# Source: ChEMBL document CHEMBL4680225, “Design and development of ((4-methoxyphenyl)carbamoyl) (5-(5-nitrothiophen-2-yl)-1,3,4-thiadiazol-2-yl)amide analogues as Mycobacterium tuberculosis ketol-acid reductoisomerase inhibitors” (Eur J Med Chem, 2020)
# Columns and labels:
# [1] = test system: Mycobacterium tuberculosis; experiment: Antitubercular activity against Mycobacterium tuberculosis H37Rv measured after 1 week by microplate alamar blue assay; format: functional; details: 168 h, time 1 weeks
# [2] = test system: Mycobacterium tuberculosis; experiment: Antitubercular activity against 6-weeks nutrient starved phase cultures of Mycobacterium tuberculosis H37Rv assessed as log reduction in bacterial growth at 10 uM treated for 7 days measured after 4 weeks relative to control; format: functional; details: time 5 weeks
# [3] = test system: Mycobacterium tuberculosis; experiment: Antibiofilm activity against Mycobacterium tuberculosis assessed as log reduction in bacterial growth at 10 uM measured after 1 week relative to control; format: functional, H37Rv; details: time 1 weeks
# [4] = test system: Mycobacterium tuberculosis; experiment: Antitubercular activity against Mycobacterium tuberculosis H37Rv infected in mouse primary macrophages assessed as log reduction in bacterial growth at 10 uM measured after 48 hrs relative to control; format: functional, Primary macrophage
# [5] = Inhibition of N-terminal 6His-taggged Mycobacterium tuberculosis KARI expressed in Escherichia coli BL21 using 2-acetolactate as substrate preincubated for 30 mins followed by substrate addition in presence of NADPH
# [6] = test system: Mycobacterium tuberculosis; experiment: Inhibition of N-terminal 6His-taggged Mycobacterium tuberculosis KARI expressed in Escherichia coli BL21 at 100 uM using 2-acetolactate as substrate preincubated for 30 mins followed by substrate addition in presence of NADPH relative to control
# HEK293 = experiment: Cytotoxicity against HEK293 cells assessed as reduction in cell viability measured after 48 hrs by MTT assay; format: cell-based; details: Homo sapiens, HEK293, 48 h
# [7] = Protection index, ratio IC50 for HEK293 cells to MIC for antitubercular activity against Mycobacterium tuberculosis H37Rv
# [8] = test system: Mycobacterium tuberculosis; experiment: Antimycobacterial activity against dormant Mycobacterium tuberculosis H37Rv under nutrient deprived condition; format: functional, organism-based; details: TDE = time-dependent effect
# [9] = test system: Mycobacterium tuberculosis; experiment: Antitubercular activity against early logarithmic phase cultures of Mycobacterium tuberculosis H37Rv at 1.56 to 100 uM; format: functional, organism-based; details: dose 1.56-100 µM, TDE = time-dependent effect
# [10] = test system: Mycobacterium tuberculosis; experiment: Antimycobacterial activity against dormant Mycobacterium tuberculosis H37Rv incubated for 7 days under nutrient deprived condition; format: functional, organism-based; details: time 7.0 day
# [11] = test system: Mycobacterium tuberculosis; experiment: Antitubercular activity against early logarithmic phase cultures of Mycobacterium tuberculosis H37Rv treated for 6 days and measured 2 days post last dose; format: functional, organism-based; details: time 8.0 day
SMILES,MIC [1] [µM],log(activity) [2],log(activity) [3],log(activity) [4],Ki [5] [µM],inhibition [6] [%],IC50 (HEK293) [µM],PI [7],Activity [8],Activity [9],Activity [10],Activity [11]
CO[C@H]1/C=C/O[C@@]2(C)Oc3c(C)c(O)c4c(O)c(c(/C=N/N5CCN(C)CC5)c(O)c4c3C2=O)NC(=O)/C(C)=C\C=C\[C@H](C)[C@H](O)[C@@H](C)[C@@H](O)[C@@H](C)[C@H](OC(C)=O)[C@@H]1C [RIFAMPIN],0.5,1.8,0.9,,,,,,,,,
NNC(=O)c1ccncc1 [ISONIAZID],0.4,1.5,1,2.5,,,,,,,,
COc1c(N2C[C@@H]3CCCN[C@@H]3C2)c(F)cc2c(=O)c(C(=O)O)cn(C3CC3)c12 [MOXIFLOXACIN],,2,1.8,,,,,,,,,
CC[C@@H](CO)NCCN[C@@H](CC)CO [ETHAMBUTOL],7.63,,,,,,,,,,,
COc1ccc(NC(=O)Nc2nnc(-c3ccc([N+](=O)[O-])s3)s2)cc1,,,,,3.06,,,,,,,
COc1ccc(NC(=S)Nc2nnc(-c3ccc([N+](=O)[O-])s3)s2)cc1,0.78,1.8,1.5,2.2,9.27,> 50,68.2,87.4,,,,
CC(=O)c1ccc(S(=O)(=O)Nc2nnc(-c3ccc([N+](=O)[O-])o3)s2)cc1,1.56,2.1,1.1,1.6,4.72,> 50,57.1,36.6,Tde,Tde,Dose-dependent effect,
COc1ccc(NC(=S)Nc2nnc(-c3ccc([N+](=O)[O-])o3)s2)cc1,0.78,2.5,1.8,1.7,2.02,> 50,86,110.2,Tde,,Dose-dependent effect,Dose-dependent effect
O=[N+]([O-])c1ccc(-c2nnc(NC(=S)Nc3ccc(Cl)cc3)s2)s1,25,1,1.2,,8.35,> 50,102,4.1,,,,
O=[N+]([O-])c1ccc(-c2nnc(NC(=S)Nc3ccc(F)cc3)s2)o1,0.78,2.3,1.3,1.9,5.48,> 50,72.5,92.9,,,,Dose-dependent effect
